Source: publication PMC6722743, “Whole Conversion of Soybean Molasses into Isomaltulose and Ethanol by Combining Enzymatic Hydrolysis and Successive Selective Fermentations” (Biomolecules, 2019)

Biological target: T1, RMgase (recombinant alpha-galactosidase) (Rhizomucor miehei, UniProt H8Y263)
T1 construct: codon-optimised synthetic gene with XPR2 signal peptide at 5' end (vector pINA1312), secreted by Yarrowia lipolytica transformant G82; purified by DEAE-Sepharose for pH/temperature profiles
T1 sequence (H8Y263 18-751): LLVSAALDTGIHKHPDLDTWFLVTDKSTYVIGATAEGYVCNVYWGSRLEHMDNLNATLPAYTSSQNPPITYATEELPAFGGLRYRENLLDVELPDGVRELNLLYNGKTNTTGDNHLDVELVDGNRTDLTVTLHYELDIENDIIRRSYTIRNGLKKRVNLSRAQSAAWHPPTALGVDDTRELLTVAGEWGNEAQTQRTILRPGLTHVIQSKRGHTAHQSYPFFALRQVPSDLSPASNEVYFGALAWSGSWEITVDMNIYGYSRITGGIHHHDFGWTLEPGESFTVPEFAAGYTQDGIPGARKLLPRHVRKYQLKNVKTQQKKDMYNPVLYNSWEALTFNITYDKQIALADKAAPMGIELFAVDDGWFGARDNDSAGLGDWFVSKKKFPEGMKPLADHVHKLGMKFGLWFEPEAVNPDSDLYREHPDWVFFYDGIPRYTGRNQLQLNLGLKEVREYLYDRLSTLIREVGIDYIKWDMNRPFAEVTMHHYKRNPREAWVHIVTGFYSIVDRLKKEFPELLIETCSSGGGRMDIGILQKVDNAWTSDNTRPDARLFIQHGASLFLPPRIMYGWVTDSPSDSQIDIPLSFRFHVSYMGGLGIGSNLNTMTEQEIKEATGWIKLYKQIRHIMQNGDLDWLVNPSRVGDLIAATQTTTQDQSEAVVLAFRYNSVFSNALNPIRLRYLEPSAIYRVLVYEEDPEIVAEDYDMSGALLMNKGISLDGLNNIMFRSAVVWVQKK
Experiment: sugar hydrolysis, activity of secreted enzyme
Assay type: biochemical

OC[C@H]1O[C@H](OC[C@H]2O[C@H](OC[C@H]3O[C@H](O[C@]4(CO)O[C@H](CO)[C@@H](O)[C@@H]4O)[C@H](O)[C@@H](O)[C@@H]3O)[C@H](O)[C@@H](O)[C@H]2O)[C@H](O)[C@@H](O)[C@H]1O [stachyose]
sugar hydrolysis, activity of secreted enzyme: the α-galactosidase activity using pNPG, stachyose, raffinose and melibiose as substrate
